{
  "source": "patent US6573041B2",
  "about": "“Neuronal cell model and methods of use thereof” (priority 2000, dated 2003)",
  "tested_on": "HSV-2 strain 333 quiescently infected ND-PC12 (QIF-PC12) cell cultures",
  "test": "Induction of HSV-2 from QIF-PC12 cell cultures; virus production by direct plaque assay of supernatants on Vero cells",
  "type": "cell-based",
  "details": "for cultures activating virus in response to forskolin: Vero cocultivation day 12 p.i.",
  "experimental": "For morphologic differentiation, PC12 cells were maintained in RPMI 1640 supplemented 0.1% bovine serum albumin, fraction V (BSA) and 50 ng/ml of 2.5S mouse nerve growth nerve factor (NGF) (Becton Dickinson) (maintenance media) throughout the studies, unless indicated, beginning on the day of plating. PC12 were plated, following two rinses with RPMI 1640 containing 0.1% BSA and dissociation by passage through a 22-gauge needle, in 12-well tissue culture dishes (Bector Dickinson Labware, Franklin Lakes, N.J., USA) coated with rat tail collagen type 1 (Bector Dickinson) at 1.1×10^5 cells/well in maintenance media. Collagen was applied as recommended by the supplier. Following 4 days of differentiation in maintenance media, cultures were maintained in RPMI 1640 supplemented with 10% horse serum (heat-inactivated) and 5% FBS, and 50 ng/ml NGF for 2 days. The following day cultures received maintenance media supplemented with 100 μM acycloguanosine (ACV) when indicated, purchased from Sigma (St. Louis, Mo., USA). Morphologic differentiation was confirmed by microscopic visualization of dendritic processes. Media was changed every 2 to 3 days unless indicated.\nND-PC12 cells were infected in a volume of 0.4 ml/well in 12-well plates without agitation at the indicated multiplicity of infection (MOI) overnight at 37° C. When used, ACV was maintained in the medium from 1 day prior to infection 8 days post-infection (p.i.). After ACV withdrawal, a quiescent state (i.e., free of detectable infectious virus in culture supernatants) was maintained for at least 7 days prior to induction. At the indicated times, Vero cells were trypsinized, washed twice with RPMI and introduced into the QIF-PC12 cell cultures at a ratio of 1:1 in maintenance media.\nHSV QIF-PC12 cells, that were free of detectable infectious virus, were subjected to heat stress (43° C. for 3 h in an incubator), or maintenance media supplemented with or without 50 μM forskolin (Sigma) as previously described (Danaher et al, 1999a,b). Virus production was determined using 25% volume of supernatants from infected PC12 cultures in a direct plaque assay (DPA) on monolayers of Vero cells as previously described (Miller and Smith, 1991). Cultures were subsequently replenished with fresh maintenance media.\nBased on these findings, forskolin and HS induced HSV-2 reactivation from QIF-PC12 cell cultures that were cocultivated with Vero cells was analyzed in more detail. QIF-PC12 cell cultures were established with strain 333 at MOI of 10 as described in the Materials and methods using transient ACV treatment. Cultures were cocultivated with Vero cells at a ratio of 1:1 three days before induction with forskolin or HS (day 15 p.i.). Virus production was monitored from day 10 through 23 p.i. Prior to induction, HSV-2 was detected infrequently (2.8%; 1/36) in cocultivated cultures. The 35 cultures that were not shedding virus were used in induction assays. Following induction treatment (FIG. 1), virus was detected in 90 to 100% of HS and forskolin induced cocultivated cultures, and 8.3% (1/12) of mock-induced cocultivated cultures.\nTo assess this, QIF-PC12 cell cultures were established with HSV-2 as described above. Cultures were cocultivated with Vero cells at a ratio of 1:1 within 10 days of AC withdrawal. Induction was performed with forskolin on day 30 p.i. Cultures were monitored for virus production using culture supernatants. Over the 3 week period between ACV withdrawal and induction, 71% (17/24) of the HSV-2 infected culture maintained quiescence. HSV-2 was produced from 100% (8/8) of forskolin induced cultures and 0% (0/9) of mock induced cultures by 8 days post-induction (data not shown).\nNext, it was determined whether the efficiency of HSV-2 activation from quiescence was MOI-dependent. QIF-PC12 cell cultures were established with HSV-2 strain 333 at MOIs of 3 and 30 and cocultivated with Vero cells at a ratio of 1:1 on day 12 p.i. as above. […]",
  "data": [
    {"smiles": "C=C[C@@]1(C)CC(=O)[C@]2(O)[C@@]3(C)[C@@H](O)CCC(C)(C)[C@@H]3[C@H](O)[C@H](OC(C)=O)[C@@]2(C)O1", "note": "[forskolin]", "values": [
      {"measurement": "cultures activating virus in response to forskolin", "setting": "50 μM forskolin day 15 p.i., MOI of 3, established with ACV, 9/11 by day 7", "result": 82, "unit": "%"},
      {"measurement": "cultures activating virus in response to forskolin", "setting": "50 μM forskolin day 15 p.i., MOI of 30, established with ACV, 12/12 by day 6", "result": 100, "unit": "%"},
      {"measurement": "cultures producing HSV-2 after forskolin induction", "setting": "established without ACV, MOI of 3, 50 μM forskolin day 15 p.i., by day 6 post-induction, 10/11 cultures", "result": 91, "unit": "%"},
      {"measurement": "cultures from which virus was recovered after forskolin induction", "setting": "established without ACV, MOI of 3, previously mock induced non-productive cultures, forskolin induced on day 30 p.i., 4/4 cultures", "result": 100, "unit": "%"},
      {"measurement": "forskolin induced reactivation (cultures)", "setting": "established without ACV, MOI of 30, 50 μM forskolin day 15 p.i., 9/10 cultures", "result": 90, "unit": "%"},
      {"measurement": "cultures producing HSV-2 after forskolin induction", "setting": "forskolin on day 30 p.i., established with ACV, Vero cocultivation, by 8 days post-induction, 8/8 cultures", "result": 100, "unit": "%"}
    ]}
  ]
}
